US20030194377A1, “Therapeutic uses of BPI protein products in cystic fibrosis patients” (priority 1996, published 2003)

B1: BPI: bactericidal/permeability-increasing protein isolated from granules of polymorphonuclear leukocytes (protein, UniProt P17213 32-487, looked up)
Bactericidal …: VNPGVVVRISQKGLDYASQQGTAALQKELKRIKIPDYSDSFKIKHLGKGHYSFYSMDIREFQLPSSQISMVPNVGLKFSISNANIKISGKWKAQKRFLKMSGNFDLSIEGMSISADLKLGSNPTSGKPTITCSSCSSHINSVHVHISKSKVGWLIQLFHKKIESALRNKMNSQVCEKVTNSVSSELQPYFQTLPVMTKIDSVAGINYGLVAPPATTAETLDVQMKGEFYSENHHNPPPFAPPVMEFPAAHDRMVYLGLSDYFFNTAGLVYQEAGVLKMTLRDDMIPKESKFRLTTKFFGTFLPEVAKKFPNMKIQIHVSASTPPHLSVQPTGLTFYPAVDVQAFAVLPNSSLASLFLIGMHTTGSMEVSAESNRLVGELKLDRLLLELKHSNIGPFPVELLQDIMNYIVPILVLPRVNEKLQKGFPLPTPARVQLYNVVLQPHQNFLLFGADVVYK
B2: rBPI: recombinant BPI holoprotein (protein, UniProt P17213 32-487, looked up)
Bactericidal …: B1 Bactericidal …

Key:
[1] = system: Pseudomonas aeruginosa strain isolated from a sputum sample from a CF patient; test: Dade MicroScan gram-negative panels supplemented with rBPI21; type: cell-based; settings: for change of susceptibility to antibiotic: in combination with rBPI21 formulated with 0.2% poloxamer 403; for change of antibiotic MIC: in combination with rBPI21 formulated with 0.2% poloxamer 403, versus poloxamer 188 formulation; for susceptibility of the strain to combination of rBPI21 and antibiotic: supplemented with 16 μg/mL rBPI21 formulated with 0.2% poloxamer 188
[2] = system: autoantibodies to BPI; settings: adult CF patients, Zhao et al. 1996; cited from earlier work
[3] = system: anti-BPI antibodies; test: enzyme immunoassay of BPI antibody titers in plasma samples from cystic fibrosis patients; type: binding, human; settings: 11 CF patient plasma samples, dilutions 1/100 to 1/12,800; protein coated as antigen
Description: Plasma samples from 11 cystic fibrosis (CF) patients were tested for the presence of anti-BPI antibodies as follows. BPI holoprotein (rBPI) or an N-terminal BPI protein product (rBPI21) were used as antigen sources in an enzyme immunoassay. The wells of Immulon 2 microtiter plates (Dynatech Laboratories Inc., Chantilly, Va.) were coated overnight at 2-8° C. with 50 uL of rBPI21 (0.5 μg/mL) or rBPI (1 μg/mL) diluted in phosphate buffered saline, pH 7.2 (PBS). Unbound BPI was removed and 200 μL of PBS containing 0.1% human serum albumin and 0.1% goat serum was added to all wells. After blocking the plates for 1 hour at room temperature, the wells were washed 3 times with 300 μL of wash buffer (PBS/0.5% Tween 20). Plasma samples were prepared as serial two-fold dilutions from 1/100 to 1/12,800. Plasma samples were diluted in triplicate with PBS containing 1% bovine serum albumin, 1% goat serum and 0.05% Tween 20 (PBS-BSA-GS/Tween). […] The absorbance at 405 nm (A405) was determined for all wells using a Vmax Plate Reader (Molecular Devices Corp., Menlo Park, Calif.).
The mean A405 for all samples were corrected for background by subtracting the mean A405 of wells receiving sample dilution buffer (no plasma) in the primary incubation step. […] An absorbance greater than 0.05 units was considered to be above background.

Row | Molecule | change of susceptibility to antibiotic [1] | susceptibility of the strain to combination of rBPI21 and antibiotic [1] | also measured
1 | CC1(C)S[C@@H]2[C@H](NC(=O)[C@H](NC(=O)N3CCNC3=O)c3ccccc3)C(=O)N2[C@H]1C(=O)O [azlocillin] | increased susceptibity | – | –
2 | C[C@H]1[C@H](NC(=O)/C(=N\OC(C)(C)C(=O)O)c2csc(N)n2)C(=O)N1S(=O)(=O)O [aztreonam] | – | susceptible | change of antibiotic MIC [1]: further decreased the MICs
3 | CC1(C)S[C@@H]2[C@H](NC(=O)C(C(=O)O)c3ccccc3)C(=O)N2[C@H]1C(=O)O (stereo partly shown) [carbenicilin] | – | susceptible | –
4 | O=C(N[C@H](CO)[C@H](O)c1ccc([N+](=O)[O-])cc1)C(Cl)Cl [chloramphenicol] | increased susceptibity | – | –
5 | O=C(O)c1cn(C2CC2)c2cc(N3CCNCC3)c(F)cc2c1=O [ciprofloxacin] | – | susceptible | change of antibiotic MIC [1]: further decreased the MICs
6 | CCN[C@@H]1C[C@H](N)[C@@H](O[C@H]2OC(CN)=CC[C@H]2N)[C@H](O)[C@H]1O[C@H]1OC[C@](C)(O)[C@H](NC)[C@H]1O [netilmicin] | increased susceptibity | – | –
7 | NC[C@H]1O[C@H](O[C@H]2[C@H](O)[C@@H](O[C@H]3O[C@H](CO)[C@@H](O)[C@H](N)[C@H]3O)[C@H](N)C[C@@H]2N)[C@H](N)C[C@@H]1O [tobramycin] | – | susceptible | –
8 | Augmentin | increased susceptibity | – | –
9 | sulfamethoxazole/trimethoprim | – | susceptible | –
10 | B1 | – | – | sera with autoantibodies to BPI [2]: 60/66
11 | B2 | – | – | plasma samples with detectable immune response (A405>0.05) [3]: 7/11
